Assay results taken from US20240252549A1, “COMPOSITIONS AND METHODS TO TRANSFECT, TEST, AND TREAT SKIN CELLS” (The Regents of the University of Michigan, priority 2021, published 2024).
“Also recorded” adds a separate entry of the source.

Assays:
IFNK = IFNK mRNA expression in keratinocytes (qRT-PCR); assay type: cell-based, human; conditions: all KO KCs treated, FIG. 3B
Procedure: (§1) Immortalized keratinocyte cell line, N/TERT1, was used with permission for generation of knock-out (KO) cell lines using non-homologous end joining via CRISPR/Cas9. […] N/TERTs were grown in Keratinocyte-SFM medium (ThermoFisher #17005-042) supplemented with 30 μg/ml bovine pituitary extract, 0.2 ng/ml epidermal growth factor, and 0.3 mM calcium chloride (2).
(§2) CRISPR KO KCs were generated as previously described (3). In brief, Single-guide RNA (sgRNA) target sequence was developed using a web interface for CRISPR design (https://portals.broadinstitute.org/gpp/public/analysis-tools/sgrna-design). Synthetic sgRNA target sequences were inserted into a cloning backbone, pSpCas9 (BB)-2A-GFP (PX458) (Addgene plasmid #48138) and then cloned into competent E. coli (ThermoFisher #C737303). Proper insertion was validated by Sanger sequencing. […] Cells were then genotyped and analyzed by Sanger sequencing.
(§3) RNA extraction, qRT-PCR and RNA-Sequencing were performed following the protocol published earlier (3). […] We used STAR to align RNA-seq reads to the human genome, using annotations of GENCODE as gene model. HTSeq was used to quantify gene expression levels; normalization and differential expression analysis were performed by DESeq2.

MX1 = MX1 (interferon-stimulated gene) mRNA expression in keratinocytes (qRT-PCR); assay type: cell-based, human; conditions: all KO KCs treated, FIG. 7
Procedure: as §1, §2, §3

Q: With Nc1ncn([C@H]2C[C@H](O)[C@@H](CO)O2)c(=O)n1 [5-dAza-c] as the compound, how does the “IFNK mRNA expression in CRISPR-cas9 generated KO keratinocytes after demethylating agent” value (IFNK) read?
A: The value was “Reversal; also recorded: significant increase”.

Q: And the “MX1 mRNA expression in CRISPR-cas9 generated KO keratinocytes after demethylating agent” value (MX1)?
A: Its value is “significant increase”.
